Measured values reported in patent publication US20220395458A1, “PREVENTION OF VISIBLE PARTICLE FORMATION IN AQUEOUS PROTEIN SOLUTIONS” (Hoffmann-La Roche Inc., priority 2019, published 2022).

Key:
[1] = Particle identification by FTIR; assay type: physicochemical; conditions: particle identification d1
Description: Particles >20 μm were further identified by Fourier transformed infrared spectroscopy (FTTIR) using a Nicolet™ iNTM10 Infrared Microscope (Thermo Fisher Scientific) by comparison to reference spectra. Samples were filtrated under laminar air flow through gold-coated polycarbonate filters (pore size 0.8 μm, diameter 13 mm, Sterlitech). Filter conditioning included few droplets of ethanol followed by 1 mL of particle-free water. After filtration of the samples, ˜1 mL of cooled particle-free water was used as a final washing step before analysis.
(§1) pH of all solutions was verified. Samples were visually inspected immediately after spiking and regularly for up to 7 days. Further characterization by HIAC, turbidity, FTIR, and SEM-EDX was performed on day 1 only. All samples were analyzed when equilibrated to room temperature (4 h).
Glass leachables were generated from different types of glass vials, e.g. Exp33 and Exp51 vials, with different matrix solutions including WFI, a glycine solution adjusted to pH 6, and a placebo solution representative for a mAb formulation. Defined amounts of myristic and lauric acid below their solubility limit were added to the solutions/mixtures of glass leachables and analyzed. Visible particles in Seidenader are summarized in Table 3 and were detected for all samples in contrast to various controls. Particle formation was dependent on the glass leachable solution and dependent on incubation time. […] An example for the dependency of particle formation on incubation time is provided in Table 3 for myristic acid in glass leachable solution from Exp51 vials/glycine solution. The example highlights the kinetics of particle formation with no particles directly after spiking and more than 10 particles at incubation day 5 and 7. For selected samples, particles were further characterized and identified by FTIR confirming the presence of free fatty acids. FFA were not confirmed by FTIR for glass leachable solutions generated with WFI, which is linked to the time point of FTIR analysis at d1 and the late onset of particle formation for these samples. Placebo samples were not analyzed further by FTIR as the positive control was found negative attributed to the presence of additional 0.02% PS20, potentially solubilizing the FFA seeds. Characterization of the particles by SEM-EDX confirmed the presence of glass leachables, like Aluminium or silicon on the surface of the FFA particles. […] The spiking study highlights that mixtures of ‘real’ glass leachables lead to precipitation of FFA and particle formation in the visible range dependent on mixture and amount of glass leachables as well as dependent on incubation time, […]

[2] = Visible particles by Seidenader after spiking FFA to inorganic salt solutions; assay type: physicochemical; conditions: for Visible particles in Seidenader: dependent on salt concentration over time, much lesser extent than CaCl2 and NaAlO2; for Visible particles Seidenader d0 / Visible particles Seidenader d2 / Visible particles Seidenader d7 / Visible particles Seidenader d1: FFA below solubility limit; for Visible particles Seidenader d0: d0 directly after spiking
Description: Del.) at 100 rpm at 25° C., for 1 hour. […] FFA concentrations were verified for selected by LC-MS samples acc. Honemann et al.^7
[…] NaCl, NaAlO2. NaBO2. B2O3, and CaCl2 (Sigma-Aldrich/Merck. Darmstadt. Del.) were selected as their dissolution products (ions) represent typical glass leachables from Type I borosilicate glass. The pH of the NaAlO2 and NaBO2 stock solutions was adjusted to pH 6 using HCl and subsequently filtered using 0.22 μm PVDF Sterivex filters (Merck Millipore. Darmstadt. Del.) and true elemental concentrations were determined by inductively-coupled plasma mass spectrometry (ICP-MS). […] Spiking experiments with FFA were performed in duplicates.
Samples were analyzed by visual inspection on a Seidenader V 90-T instrument (Seidenader Maschinenbau GmbH. Markt Schwaben. Del.) as previously described by Ditter et al.^9 and using a black/white panel according Ph. Eur. 2.9.20.^10 and classified as Many particles (>7). Few particles (4-7), or Practically free of particles (0-4) in E/P box, and Many particles (>10). Few particles (6-10). Essentially free of particles (1-5), or Free of particles (0) by Seidenader.
as §1
Different inorganic salt solutions, i.e. CaCl2. NaAlO2. NaBO2. B2O3, and NaCl, were prepared simulating artificial glass leachables. Myristic and lauric acid, as main degradation product from hydrolytic PS20 degradation, were added at concentrations below their solubility limit and samples were analyzed for visible particles. SVP, and turbidity. Samples were compared against relevant controls and the pH verified at pH 6.

[3] = CaCl2 250 μg/mL (Ca2+ 90 μg/mL)
[4] = CaCl2 500 μg/mL (Ca2+ 180 μg/mL)
[5] = CaCl2 1000 μg/mL (Ca2+ 360 μg/mL)
[6] = NaAlO2 nominal 250 μg/mL (0.012 μg/mL ion)
[7] = NaAlO2 nominal 500 μg/mL (0.024 μg/mL ion)
[8] = NaAlO2 nominal 1000 μg/mL (0.048 μg/mL ion)

SMILES | FTIR ([1]; Exp51 vials, 3xTS Glycine pH 6) | Visible particles in Seidenader ([2]; B2O3 solution) | Visible particles Seidenader d0 [2, 3] | Visible particles Seidenader d2 [2, 3] | Visible particles Seidenader d7 [2, 3] | Visible particles Seidenader d0 [2, 4] | Visible particles Seidenader d2 [2, 4] | Visible particles Seidenader d7 [2, 4] | Visible particles Seidenader d2 [2, 5] | Visible particles Seidenader d1 [2, 6] | Visible particles Seidenader d2 [2, 6] | Visible particles Seidenader d7 [2, 8] | Visible particles in Seidenader ([2]; NaBO2 solution) | also measured
CCCCCCCCCCCC(=O)O [Lauric acid, lauric acid] | FFA | visible particles were obtained | / (Free of particles (0, /) by Seidenader) | xxx (Many particles (>10, xxx)) | xxx (Many particles (>10, xxx)) | / (Free of particles (0, /) by Seidenader) | xxx (Many particles (>10, xxx)) | xxx (Many particles (>10, xxx)) | xxx (Many particles (>10, xxx)) | x (Essentially free of particles (1-5, x)) | x (Essentially free of particles (1-5, x)) | xxx (Many particles (>10, xxx)) | visible particles were obtained | FTIR ([1]; Exp33 vials, 3xTS WFI): FFA; Visible particles Seidenader d0 [2, 6]: / (Free of particles (0, /) by Seidenader); Visible particles Seidenader d0 [2, 7]: x (Essentially free of particles (1-5, x)); Visible particles Seidenader d1 [2, 7]: x (Essentially free of particles (1-5, x)); Visible particles Seidenader d1 [2, 8]: x (Essentially free of particles (1-5, x))
CCCCCCCCCCCCCC(=O)O [Myristic acid, myristic acid] | FFA | visible particles were obtained | xxx (Many particles (>10, xxx)) | xxx (Many particles (>10, xxx)) | xxx (Many particles (>10, xxx)) | xxx (Many particles (>10, xxx)) | xxx (Many particles (>10, xxx)) | xxx (Many particles (>10, xxx)) | xxx (Many particles (>10, xxx)) | x (Essentially free of particles (1-5, x)) | x (Essentially free of particles (1-5, x)) | xxx (Many particles (>10, xxx)) | visible particles were obtained | FTIR ([1]; Exp33 vials, 3xTS Glycine pH 6): FFA; Visible particles Seidenader d1 [2, 3]: xxx (Many particles (>10, xxx)); Visible particles Seidenader d1 [2, 4]: xxx (Many particles (>10, xxx)); Visible particles Seidenader d0 [2, 5]: xxx (Many particles (>10, xxx)); Visible particles Seidenader d1 [2, 5]: xxx (Many particles (>10, xxx)); Visible particles Seidenader d7 [2, 5]: xxx (Many particles (>10, xxx)); Visible particles Seidenader d7 [2, 6]: xxx (Many particles (>10, xxx)); Visible particles Seidenader d2 [2, 7]: x (Essentially free of particles (1-5, x)); Visible particles Seidenader d7 [2, 7]: xxx (Many particles (>10, xxx)); Visible particles Seidenader d0 [2, 8]: x (Essentially free of particles (1-5, x))
